Patent publication US20220118037A1, “METHOD FOR IMPROVING SARCOPENIA BY USING PHELLINUS LINTEUS” (GRAPE KING BIO LTD, priority 2020, published 2022)
Marks after values point to notes of the source that are not given here.

System: C2C12 cell line
Assay: Dexamethasone-induced sarcopenia model in differentiated C2C12 myotubes, diameters of the myotubes (H&E stain, Image-Pro Plus)
Format: cell-based, mouse
Details: 10 μM dexamethasone alone in 0.1% DMSO, 24 hours, C2C12 myotubes (negative control group)
From the text: Mouse skeletal myocytes (i.e., C2C12 cell line) were utilized to establish a sarcopenia model. An artificially synthetic corticosteroid, dexamethasone was utilized to establish the sarcopenia model. Dexamethasone could inhibit the immune system and thus was utilized as an anti-inflammation drug or an allergy drug. […] Thus, dexamethasone was used to induce muscular dystrophy for simulating sarcopenia in this Example. First, a growth medium [Dulbecco's modified minimal essential medium (DMEM) including 10% fetal bovine serum] was utilized to culture the C2C12 cell line under 37° C., 5% CO2, in which the start density of the C2C12 cell line was 1×10^5 to 2×10^5 cells/mL. […] The diameters of the myotubes were measured by using a commercial software (Image-Pro Plus software), and the results of statistical analysis on the diameters of the myotubes were shown in Table 1, in which the statistic method used to analyze the percentage of each items was paired sample t-test, and the symbols “#” and “*” represented significant differences compared to the blank control group and negative control group (p<0.05, n=60), respectively.

SMILES: C[C@@H]1C[C@H]2[C@@H]3CCC4=CC(=O)C=C[C@]4(C)[C@@]3(F)[C@@H](O)C[C@]2(C)[C@@]1(O)C(=O)CO [dexamethasone]
- Diameters of the myotubes: 19.98 ± 6.42# μm
